Laboratory results reported in ChEMBL document CHEMBL1201862, “PubChem BioAssay data set” (2004).
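How tested: cells in 96-well plates exposed to compound for 48 hours at five concentrations. At the GI50, growth is halved.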 Activity calls are given as the source filed them. Cut-off read from the data, not from the text of the source: active = GI50 up to about 1.1 µM and inactive = higher.

Experiments:
Assay in all cases: DTP human tumour cell line panel, 48 h
SW-620 = tested on: SW-620
TK-10 = tested on: TK-10
SK-OV-3 = tested on: SK-OV-3
SF-295 = tested on: SF-295
SF-539 = tested on: SF-539
NCI-H226 = tested on: NCI-H226
COLO 205 = tested on: COLO 205
NCI/ADR-RES = tested on: NCI/ADR-RES
NCI-H460 = tested on: NCI-H460
IGROV-1 = tested on: IGROV-1
SN12C = tested on: SN12C
HL-60 = tested on: HL-60
KM12 = tested on: KM12
RPMI-8226 = tested on: RPMI-8226
HCT-116 = tested on: HCT-116
CAKI-1 = tested on: CAKI-1
SNB-19 = tested on: SNB-19
NCI-H23 = tested on: NCI-H23
MDA-MB-435 = tested on: MDA-MB-435
SNB-75 = tested on: SNB-75

SMILES | GI50 (SW-620) | GI50 (TK-10) | GI50 (SK-OV-3) | GI50 (SF-295) | GI50 (SF-539) | GI50 (NCI-H226) | GI50 (COLO 205) | GI50 (NCI/ADR-RES) | GI50 (NCI-H460) | GI50 (IGROV-1) | GI50 (SN12C) | GI50 (HL-60) | GI50 (KM12) | GI50 (RPMI-8226) | GI50 (HCT-116) | GI50 (CAKI-1) | GI50 (SNB-19) | GI50 (NCI-H23) | GI50 (MDA-MB-435) | GI50 (SNB-75)
O=C(NCCCCN(CCCNC(=O)C(F)(F)F)Cc1ccc2ccccc2c1)C(F)(F)F | 15.3 µM (inactive) | 20.4 µM (inactive) | 23 µM (inactive) | 16.7 µM (inactive) | 16.3 µM (inactive) | 17.3 µM (inactive) | 14.9 µM (inactive) | 14.5 µM (inactive) | 16.4 µM (inactive) | 17.2 µM (inactive) | 16.1 µM (inactive) | 65.2 µM (inactive) | 17.5 µM (inactive) | > 10 µM (inactive) | 16 µM (inactive) | 14.3 µM (inactive) | 14 µM (inactive) | 20.1 µM (inactive) | 19.3 µM (inactive) | 11.5 µM (inactive)
CC1=NOC2(C1)C(=O)Nc1ccccc12 (centres undefined) | 24.4 µM (inactive) | > 100 µM (inactive) | > 100 µM (inactive) | > 100 µM (inactive) | > 100 µM (inactive) | 50.8 µM (inactive) | > 100 µM (inactive) | 44.5 µM (inactive) | > 100 µM (inactive) | > 100 µM (inactive) | > 100 µM (inactive) | > 100 µM (inactive) | > 100 µM (inactive) | > 100 µM (inactive) | > 100 µM (inactive) | 30.3 µM (inactive) | 40.6 µM (inactive) | > 100 µM (inactive) | > 100 µM (inactive) | 66.2 µM (inactive)
O=C1CCC2c3ccccc3NCN12 (centres undefined) | > 100 µM (inactive) | > 100 µM (inactive) | > 100 µM (inactive) | > 100 µM (inactive) | > 100 µM (inactive) | > 100 µM (inactive) | > 100 µM (inactive) | > 100 µM (inactive) | > 100 µM (inactive) | > 100 µM (inactive) | > 100 µM (inactive) | > 100 µM (inactive) | > 100 µM (inactive) | > 100 µM (inactive) | > 100 µM (inactive) | > 100 µM (inactive) | > 100 µM (inactive) | > 100 µM (inactive) | > 100 µM (inactive) | > 100 µM (inactive)
O=C(c1cc(Br)ccc1O)c1cc(Br)ccc1O | 16.4 µM (inactive) | 18.9 µM (inactive) | 19.4 µM (inactive) | 17.7 µM (inactive) | 21.2 µM (inactive) | 20 µM (inactive) | 17.4 µM (inactive) | 18.8 µM (inactive) | 17.6 µM (inactive) | 14.3 µM (inactive) | 16.7 µM (inactive) | 22.4 µM (inactive) | 17.1 µM (inactive) | 11.3 µM (inactive) | 15.9 µM (inactive) | 18.2 µM (inactive) | 17.2 µM (inactive) | 17.1 µM (inactive) | 15.8 µM (inactive) | 16.4 µM (inactive)
Cc1cc2c(cc1C)[n+]([O-])c(C(=O)/C=C/c1ccccc1[N+](=O)[O-])c(C)[n+]2[O-] | > 100 µM (inactive) | 49.9 µM (inactive) | > 46.7 µM (inactive) | 36.3 µM (inactive) | 31.2 µM (inactive) | 67.5 µM (inactive) | 99.3 µM (inactive) | > 100 µM (inactive) | 71.6 µM (inactive) | > 80 µM (inactive) | 69 µM (inactive) | 89.5 µM (inactive) | > 100 µM (inactive) | > 73.3 µM (inactive) | 70.8 µM (inactive) | 47.2 µM (inactive) | 30.3 µM (inactive) | 48.5 µM (inactive) | > 100 µM (inactive) | 11.1 µM (inactive)
CCN(CC(COc1ccc2c(c1)[n+]([O-])nc(N)[n+]2[O-])OC(C)=O)C(C)=O (centres undefined) | > 100 µM (inactive) | > 100 µM (inactive) | 15.2 µM (inactive) | > 100 µM (inactive) | > 100 µM (inactive) | > 100 µM (inactive) | 32.2 µM (inactive) | > 100 µM (inactive) | > 10 µM (inactive) | 29.1 µM (inactive) | > 100 µM (inactive) | 80.4 µM (inactive) | 95.5 µM (inactive) | > 100 µM (inactive) | 78.7 µM (inactive) | > 100 µM (inactive) | > 100 µM (inactive) | 49.5 µM (inactive) | 90.4 µM (inactive) | 35.8 µM (inactive)
CN(C)CC1CCC/C(=C\c2ccc(Cl)c(Cl)c2)C1=O (centres undefined) | – | 3.31 µM (inactive) | 6.78 µM (inactive) | 12.4 µM (inactive) | 5.2 µM (inactive) | 11.4 µM (inactive) | 2.67 µM (inactive) | 3.05 µM (inactive) | 9.2 µM (inactive) | 3.56 µM (inactive) | 3.42 µM (inactive) | 1.97 µM (inactive) | 1.84 µM (inactive) | 0.205 µM (active) | 1.97 µM (inactive) | 2.59 µM (inactive) | 7.23 µM (inactive) | 8.45 µM (inactive) | 6.38 µM (inactive) | 7.41 µM (inactive)
CN(CCCN1CCCC1)CCCN(C)C(=O)Cc1ccc(Cl)c(Cl)c1 | 18.4 µM (inactive) | 16.2 µM (inactive) | 27.7 µM (inactive) | 17.7 µM (inactive) | 16.7 µM (inactive) | 26.2 µM (inactive) | 17.6 µM (inactive) | > 73.3 µM (inactive) | 16.3 µM (inactive) | 23.9 µM (inactive) | 21 µM (inactive) | 15.7 µM (inactive) | 18.7 µM (inactive) | 4.61 µM (inactive) | 13.6 µM (inactive) | 20.6 µM (inactive) | 26.9 µM (inactive) | 21.2 µM (inactive) | 3.04 µM (inactive) | 18.5 µM (inactive)
C[C@]12CC[C@@H]3c4ccc(OC(=O)c5ccccc5)cc4CC[C@H]3[C@@H]1CCC2OC(=O)c1cccc2c(=O)c3ccccc3[nH]c12 (some centres undefined) | 12.1 µM (inactive) | 19.1 µM (inactive) | 30.4 µM (inactive) | 18.2 µM (inactive) | 16.6 µM (inactive) | 17.9 µM (inactive) | 16.9 µM (inactive) | 18 µM (inactive) | 17.4 µM (inactive) | 16.5 µM (inactive) | 14.4 µM (inactive) | 18.8 µM (inactive) | 15.4 µM (inactive) | 29.9 µM (inactive) | 16.4 µM (inactive) | 27 µM (inactive) | 27.4 µM (inactive) | 20.8 µM (inactive) | 3.77 µM (inactive) | 23 µM (inactive)
O=C(c1ccco1)N1CCN(C(=O)c2ccco2)C1=S | 5.66 µM (inactive) | 6.31 µM (inactive) | 17.3 µM (inactive) | 18.5 µM (inactive) | 3.33 µM (inactive) | 28.7 µM (inactive) | 6.81 µM (inactive) | 21.1 µM (inactive) | 8.73 µM (inactive) | 9.64 µM (inactive) | 4.18 µM (inactive) | 3.42 µM (inactive) | 3.93 µM (inactive) | 2.02 µM (inactive) | 9.86 µM (inactive) | 4.72 µM (inactive) | 24.4 µM (inactive) | 18.4 µM (inactive) | 3.59 µM (inactive) | 10.4 µM (inactive)
Cc1coc2c1C(=O)C(=O)c1c-2ccc2c1CCCC2(C)C [TANSHINONE IIA] | 2.42 µM (inactive) | 21.6 µM (inactive) | 21.3 µM (inactive) | 2.48 µM (inactive) | 2.42 µM (inactive) | 2.29 µM (inactive) | 8.07 µM (inactive) | 4.58 µM (inactive) | 1.17 µM (inactive) | 2.04 µM (inactive) | 3.7 µM (inactive) | 1.07 µM (active) | 3.76 µM (inactive) | 1.94 µM (inactive) | 1.55 µM (inactive) | 1.95 µM (inactive) | 2.52 µM (inactive) | 1.14 µM (inactive) | 1.48 µM (inactive) | 3.41 µM (inactive)
CC(C)(C)OC(=O)N1C(OP(=O)(Oc2ccccc2)Oc2ccccc2)=CSc2ccccc21 | 41.2 µM (inactive) | 35 µM (inactive) | 57.8 µM (inactive) | 29.3 µM (inactive) | 72.8 µM (inactive) | 80.2 µM (inactive) | 20.4 µM (inactive) | 43.2 µM (inactive) | 29.1 µM (inactive) | 38.1 µM (inactive) | 56.6 µM (inactive) | 20.1 µM (inactive) | 32.8 µM (inactive) | 17.8 µM (inactive) | 30.2 µM (inactive) | 18.8 µM (inactive) | 43.2 µM (inactive) | 37.4 µM (inactive) | 31.3 µM (inactive) | 31 µM (inactive)
COC(=O)[C@@H]1C[C@@]2(C3C=CN(C(=O)C(F)(F)F)C=C3)c3ccccc3N(C(=O)C(F)(F)F)[C@H]2N1C(=O)OC | 47.3 µM (inactive) | 16.9 µM (inactive) | > 100 µM (inactive) | > 100 µM (inactive) | > 100 µM (inactive) | > 100 µM (inactive) | > 100 µM (inactive) | > 100 µM (inactive) | > 100 µM (inactive) | > 100 µM (inactive) | 56.9 µM (inactive) | 30.9 µM (inactive) | > 100 µM (inactive) | 42.1 µM (inactive) | > 100 µM (inactive) | 65.3 µM (inactive) | 71.6 µM (inactive) | > 100 µM (inactive) | 44.8 µM (inactive) | 20.1 µM (inactive)
Cc1cc2oc(=O)c(Cl)c(Cl)c2c(C)c1Cl | 1.37 µM (inactive) | 14.8 µM (inactive) | 14.4 µM (inactive) | 14.4 µM (inactive) | 9.35 µM (inactive) | 17.3 µM (inactive) | 2.56 µM (inactive) | 5.5 µM (inactive) | 16.7 µM (inactive) | 4.3 µM (inactive) | 11.5 µM (inactive) | 1.91 µM (inactive) | 15.1 µM (inactive) | 2.35 µM (inactive) | 3.78 µM (inactive) | 4.74 µM (inactive) | 11.8 µM (inactive) | 6.28 µM (inactive) | 4.25 µM (inactive) | 12.4 µM (inactive)
